# “Also recorded” adds a separate entry of the source.
# System: HLTF expression
# Assay: RT-PCR assay for HLTF expression reactivation after 5-azacytidine treatment
# Type: cell-based, human
# Protocol: The cultures were grown and treated as described previously (Veigl, et al., 1998, Proc. Natl. Acad. Sci. USA, 95:8698-8702). The optimal tolerated doses were determined for each treated line, and two doses were used for some lines, ranging from 1 μg/ml to 3 μg/ml.
# To establish that methylation was responsible for silencing HLTF gene expression, cell lines with HLTF DNA methylation were treated with 5-azacytidine (5-azaC), a demethylating agent.
structure (smiles),measurement,setting,value
"Nc1ncn([C@@H]2O[C@H](CO)[C@@H](O)[C@H]2O)c(=O)n1 [5-azaC, 5-azacytidine]",reactivation of HLTF expression,"colon cancer cell lines with HLTF DNA methylation (RCA, V457, SW480, V5, V6, V432), 1 μg/ml to 3 μg/ml",reactivates HLTF expression; also recorded: reactivated HLTF expression in all these cell lines
same,change of HLTF expression in control cell lines,"control cell lines with constitutive HLTF expression and unmethylated HLTF DNA (V429, V503)",did not further increase HLTF expression
